One data set deals with T1, TPS10 (tps10-B73) (Zea mays, UniProt Q2NM15).
T1 construct: expressed in E. coli BL21(DE3) from pHIS8-3 (NcoI/EcoRI), His tag kept, Ni-NTA purified; printed forward primer codes for MPPPS at the N-terminus
T1 sequence (Q2NM15 1-533): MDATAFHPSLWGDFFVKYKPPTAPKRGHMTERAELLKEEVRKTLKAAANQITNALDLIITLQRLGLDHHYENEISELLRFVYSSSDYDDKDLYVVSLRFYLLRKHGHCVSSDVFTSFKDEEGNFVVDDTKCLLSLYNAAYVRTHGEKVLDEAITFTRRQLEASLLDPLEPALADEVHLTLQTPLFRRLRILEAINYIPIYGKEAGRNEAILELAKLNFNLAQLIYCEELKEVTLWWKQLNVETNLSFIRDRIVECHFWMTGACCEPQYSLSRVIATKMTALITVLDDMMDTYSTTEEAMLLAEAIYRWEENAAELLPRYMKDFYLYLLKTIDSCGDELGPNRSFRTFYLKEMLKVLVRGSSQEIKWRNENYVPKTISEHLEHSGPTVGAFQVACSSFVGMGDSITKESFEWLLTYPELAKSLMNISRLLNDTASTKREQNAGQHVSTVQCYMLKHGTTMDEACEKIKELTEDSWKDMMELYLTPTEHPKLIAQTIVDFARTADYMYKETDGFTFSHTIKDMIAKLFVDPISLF
Nature of the data set: [[…]-3H]FPP turnover, pentane-extracted products, scintillation counting. Type of data set: biochemical. The conditions noted are these: 10 mM MgCl2, 10 mM Mopso pH 7.0, 1 mM DTT, 10% glycerol, 30 °C; labelled compound.

The target in data set [1] is T2, TPS4 (tps4-B73) (Zea mays, UniProt Q6JD73, I411F/R442K, form not given).
T2 construct: expressed in E. coli BL21(DE3) from pHIS8-3, N-terminal His8 tag kept, Ni-NTA purified; forward primer starts the ORF at codons for SSTFHPSL, native C-terminus FVEPIPE
T2 sequence (Q6JD73 21-554 I411F/R442K): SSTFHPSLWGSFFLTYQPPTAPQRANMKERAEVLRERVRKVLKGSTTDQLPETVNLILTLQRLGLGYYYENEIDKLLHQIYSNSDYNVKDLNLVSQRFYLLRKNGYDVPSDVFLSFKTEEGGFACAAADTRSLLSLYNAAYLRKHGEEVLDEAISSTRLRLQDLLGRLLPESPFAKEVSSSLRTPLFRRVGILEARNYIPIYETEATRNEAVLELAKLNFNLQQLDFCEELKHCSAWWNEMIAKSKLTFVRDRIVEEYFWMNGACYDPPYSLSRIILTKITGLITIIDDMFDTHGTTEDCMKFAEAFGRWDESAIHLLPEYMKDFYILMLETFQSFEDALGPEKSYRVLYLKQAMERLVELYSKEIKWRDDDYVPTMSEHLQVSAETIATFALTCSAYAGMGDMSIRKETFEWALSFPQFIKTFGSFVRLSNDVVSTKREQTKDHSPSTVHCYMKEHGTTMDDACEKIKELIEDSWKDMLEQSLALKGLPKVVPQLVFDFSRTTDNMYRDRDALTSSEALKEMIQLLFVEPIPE
The data set is described as above. In kind it is biochemical. The settings on record: 10 mM MgCl2, 10 mM Mopso pH 7.0, 1 mM DTT, 10% glycerol, 30 °C; labelled compound; read-out: TPS4-c17 R442K + I411F.

In data set [2] the target is T3, TPS4 (tps4-B73) (Zea mays, UniProt Q6JD73).
T3 construct: expressed in E. coli BL21(DE3) from pHIS8-3, N-terminal His8 tag kept, Ni-NTA purified; forward primer starts the ORF at codons for SSTFHPSL, native C-terminus FVEPIPE
T3 sequence (Q6JD73 21-554): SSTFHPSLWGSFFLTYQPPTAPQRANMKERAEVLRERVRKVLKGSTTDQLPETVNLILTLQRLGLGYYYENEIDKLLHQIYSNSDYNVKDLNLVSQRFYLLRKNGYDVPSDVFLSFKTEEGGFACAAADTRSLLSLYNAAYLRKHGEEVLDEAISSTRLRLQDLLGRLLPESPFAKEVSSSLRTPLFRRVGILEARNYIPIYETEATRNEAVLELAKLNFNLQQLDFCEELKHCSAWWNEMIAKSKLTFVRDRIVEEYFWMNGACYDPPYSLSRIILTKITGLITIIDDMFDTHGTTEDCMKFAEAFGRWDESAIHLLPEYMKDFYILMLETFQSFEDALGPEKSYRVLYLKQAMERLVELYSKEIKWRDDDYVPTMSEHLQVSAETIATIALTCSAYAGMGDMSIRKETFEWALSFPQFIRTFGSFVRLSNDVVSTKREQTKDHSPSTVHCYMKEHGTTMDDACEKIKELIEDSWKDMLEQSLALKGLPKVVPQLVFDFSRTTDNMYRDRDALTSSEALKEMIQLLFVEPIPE
The description is as above. Type of data set: biochemical. The settings on record: 10 mM MgCl2, 10 mM Mopso pH 7.0, 1 mM DTT, 10% glycerol, 30 °C; labelled compound; read-out: TPS4-c17.

Substrate in the data set “purified protein”: CC(C)=CCC/C(C)=C/CC/C(C)=C/CO[P@@](=O)(O)OP(=O)(O)O
Briefly: purified protein. The conditions noted are these: 10 mM MgCl2, 10 mM Mopso pH 7.0, 1 mM DTT, 10% glycerol, 30 °C, labelled compound. In kind it is biochemical, Zea mays.

Consider `CC(C)=CCC/C(C)=C/CC/C(C)=C/CO[P@@](=O)(O)OP(=O)(O)O` [(E,E)-farnesyl diphosphate], for which the figures for the Km at TPS10 (tps10-B73), on TPS4 (tps4-B73) [1] and on TPS4 (tps4-B73) [2] were 3.2 ± 0.5 µM, 2.3 ± 0.3 µM and 2.1 ± 0.3 µM, respectively.

B1: TPS4 (tps4-B73) (Zea mays) (protein)
chain: SSTFHPSLWGSFFLTYQPPTAPQRANMKERAEVLRERVRKVLKGSTTDQLPETVNLILTLQRLGLGYYYENEIDKLLHQIYSNSDYNVKDLNLVSQRFYLLRKNGYDVPSDVFLSFKTEEGGFACAAADTRSLLSLYNAAYLRKHGEEVLDEAISSTRLRLQDLLGRLLPESPFAKEVSSSLRTPLFRRVGILEARNYIPIYETEATRNEAVLELAKLNFNLQQLDFCEELKHCSAWWNEMIAKSKLTFVRDRIVEEYFWMNGACYDPPYSLSRIILTKITGLITIIDDMFDTHGTTEDCMKFAEAFGRWDESAIHLLPEYMKDFYILMLETFQSFEDALGPEKSYRVLYLKQAMERLVELYSKEIKWRDDDYVPTMSEHLQVSAETIATIALTCSAYAGMGDMSIRKETFEWALSFPQFIRTFGSFVRLSNDVVSTKREQTKDHSPSTVHCYMKEHGTTMDDACEKIKELIEDSWKDMLEQSLALKGLPKVVPQLVFDFSRTTDNMYRDRDALTSSEALKEMIQLLFVEPIPE
notes: expressed in E. coli BL21(DE3) from pHIS8-3, N-terminal His8 tag kept, Ni-NTA purified; forward primer starts the ORF at codons for SSTFHPSL, native C-terminus FVEPIPE
Take B1: in the data set “purified protein”, the Km was found to be 3.8 ± 0.5 µM and the kcat – broadly, the maximal rate divided by the concentration of active sites – turned out to be 0.0105 ± 0.0006 s⁻¹.

The values are drawn from article PMC7284416, “The Product Specificities of Maize Terpene Synthases TPS4 and TPS10 Are Determined Both by Active Site Amino Acids and Residues Adjacent to the Active Site” (Plants, 2020).
